Measured values from US9023797B2 (priority 2012, dated 2015).

Tested on: Virus
Assay: Design of Experiment study of viral inactivation process variables
Type: cell-based
Settings: 30 mM caprylate, albumin 5%, pH 4.4, 40° C., 120 min

## CCCCCCCC(=O)O [caprylate, octanoic acid]
  predicted LRV (equivalent of 100%): 2.16
  predicted LRV on the 0 to 100 scale (maximized): 100%
